From patent US20170216360A1, “METHODS AND COMPOSITIONS FOR IMPROVING HOMING OF CELLS INCLUDING MESENCHYMAL STEM CELLS” (SANOFI, priority 2014, published 2017)
Where a name gives a salt, the structure may show the parent alone.

Columns and labels:
Format in all cases: cell-based, human
[1] = system: MSC firm adhesion to ICAM-1-coated surface; assay: ICAM-1 firm adhesion assay under shear flow, with antibody blocking
Description: Cell adhesion experiments were performed using Bioflux1000 (FluxionBio), allowing accurate control over shear flow. A special 48-well plate was used, in which a microfluidic channel (350 μm×70 μm) connects each pair of adjacent wells (termed inlet and outlet wells). The plate was placed under vacuum and the channels were coated from the inlet with recombinant human E-selectin (5 μg/mL) or ICAM-1 (5 μg/mL) and incubated at 37° C. for 1 h. Prior to introducing the cells into the channel, a wash with PBS−/− from the outlet well was performed for 5 min. Compound-pretreated MSCs were introduced into the channel, followed by attachment period of 2 minutes (no flow applied during the attachment period). Attached cells were then subjected to increasing shear flow, ranging from 0.25 dynes/cm^2 for up to 10 dynes/cm^2. Images were acquired using the Montage software and cell adhesion to the coated channels following subjection to shear flow was examined. See also disclosure elsewhere herein.
Pre-confluent MSCs were incubated for 24 hours with the indicated small molecules (3 μM). MSCs were than detached, washed and incubated for 30 minutes with an antibody reagent. The following antibodies are used: anti-human CD11a (clone: HI111), anti-human CD90 (clone: MAB2067), mouse anti-human CD11a (clone: TS1/22), and mouse IgG1 isotype control. Cells were then introduced into the channel and given 2 minutes to adhere before being subjected to increasing shear flow for a firm adhesion assay on a microfluidic channel coated with E-selectin or ICAM-1.

[2] = system: CD18 mRNA; assay: CD18 mRNA analysis by qPCR in MSCs; conditions: 3 μM
Description: (§1) The mRNA levels of CD11a and CD18 in response to Ro-31-8425 pretreatment of MSCs were analyzed by qPCR. Specifically, MSCs were treated with Ro-31-8425 (3 μM) or vehicle control (0.1% DMSO) for 2 h, 4 h, 8 h, 14 h or 24 h. Cells were then trypsinized, washed with ice-cold PBS and pelleted (500 g for 5 min at 4° C.) at during the treatment and immediately stored at −80° C. RNA extraction was then performed. Briefly, the frozen cell pellet was crushed with a tissue pestle (Fisher Scientific) in the presence of 1 mL TRI RNA isolation reagent (Sigma Aldrich). Upon complete pellet dissociation, 0.2 mL chloroform was added and suspension was vortexed for 15 s, followed by incubation at ambient temperature for 10 min. The mixture was centrifuged at 15,000 g for 15 min at […], the resulting supernatant aqueous phase was removed, thoroughly mixed with 0.5 mL isopropanol (Sigma Aldrich) and further centrifuged (at 15,000 g for 10 min) to obtain the total RNA precipitates. The RNA pellets were washed twice in 75% ethanol, and air dried for 10 min at room temperature before being reconstituted with 20 uL ultrapure H2O. The quality and quantity of the total RNAs were measured and verified using Nanodrop ND-2000 Spectrophotometer (NanoDrop Products). Subsequently, equal amount of total RNA (2 μg) was reverse transcribed into cDNA using a QuantiTect reverse transcription kit (Qiagen). […]

[3] = system: CD11a surface expression on MSCs; assay: CyTOF analysis of CD11a expression levels on MSCs
Description: To further confirm the screening results, the surface expression of CD11a was also examined by Time of Flight Mass Cytometry (CyTOF2, DVS Sciences) (Newell et al., 2013, Nat Biotechnol. 31(7):623-9). MSCs were treated with Ro-31-8425 as indicated and sample preparation was performed per manufacturer's instructions with slight modifications. Briefly, the harvested MSC pellet was first resuspended with Intercalator-103Rh solution (1 μM) in PBS to identify viable cells, then washed twice with MaxPar cell staining buffer and stained with 100 μL antibody cocktail (human Nd142-CD11a and Tb159-CD90, 1:200 dilution in staining buffer) for 30 min at room temperature. After two washes, the cells were further stained with 125 nM MaxPar Intercalator-Ir in MaxPar Fix and Perm buffer for 1-2 h with gentle shaking. Finally the fixed cells were thoroughly washed with ultrapure H2O 2O for three times (1000 g, 5 min each), resuspended in 300 μL H2O and filtered through a 40 μm Falcon cell strainer (Corning) prior to CyTOF data acquisition. The CyTOF data was analyzed with Cytobank on-line data analysis platform (website www cytobank.org).

[4] = system: MSC secretome; assay: Secretomic analysis of small molecule-primed MSCs (Bio-plex immunoassays)
[5] = system: CD11a mRNA; assay: CD11a mRNA analysis by qPCR in MSCs; conditions: 3 μM
Description: as §1

Cn1cc(C2=C(c3c4n(c5ccccc35)CCC(CN)C4)C(=O)NC2=O)c2ccccc21 (centres unmarked) [Compound 1929, 3-(8-aminomethyl-6,7,8,9-tetrahydro-pyrido[1,2-a]indol-10-yl)-4-(1-methyl-1H-indol-3-yl)-pyrrole-2,5-dione hydrochloride]
CD11a+ part of the induced ICAM-1 adhering population ([1]; 3 μM for 24 h): approximately 7%
Increase in MSC firm adhesion to ICAM-1-coated substrate compared to vehicle-treated MSCs ([1]; 3 μM for 24 h): > 3 fold
New MSC sub-population with induced ICAM-1 firm adhesion, share of entire population ([1]; 3 μM for 24 h): 68%
Part expressing other ICAM-1-binding domains ([1]; 3 μM for 24 h): 61%
Adhered cells on ICAM-1-coated surface before CD11a blocking ([1]; pretreated MSC): 90%
Adhered cells on ICAM-1-coated surface following CD11a blocking ([1]; pretreated MSC, CD11a blocking Ab): 50%
mRNA levels of CD18 in MSCs [2]: did not upregulate
Time over which the percentage of CD11a-positive MSCs was stable ([3]; 3 μM for 24 h): at least 4 days
Percentage of CD11a-positive MSCs ([3]; 0.1, 1, 3 and 10 μM for 24 hours): dose-dependent increase
Number of analytes with statistically significant changes, out of 48 secreted factors [4]: 3
Mean of [IFN-g] ([4]; 0.3 μM, 24 h, MSC donor 318006): 11.0 pg/mL
Mean of [IL-1ra] ([4]; 0.3 μM, 24 h, MSC donor 318006): 16.5 pg/mL
Mean of [IL-6] ([4]; 0.3 μM, 24 h, MSC donor 318006): 451.3 pg/mL
Mean of [IL-8] ([4]; 0.3 μM, 24 h, MSC donor 318006): 26.9 pg/mL
Mean of [IL-12p70] ([4]; 0.3 μM, 24 h, MSC donor 318006): 13.3 pg/mL
Mean of [LIF] ([4]; 0.3 μM, 24 h, MSC donor 318006): 14.2 pg/mL
Mean of [MCP-1] ([4]; 0.3 μM, 24 h, MSC donor 318006): 26.4 pg/mL
Mean of [MIF] ([4]; 0.3 μM, 24 h, MSC donor 318006): 54.9 pg/mL
Mean of [VEGF] ([4]; 0.3 μM, 24 h, MSC donor 318006): 547.2 pg/mL
Mean of [IL-1ra] ([4]; 3 μM, 24 h, MSC donor 318006): 22.6 pg/mL
Mean of [LIF] ([4]; 3 μM, 24 h, MSC donor 318006): 10.8 pg/mL
Mean of [MIF] ([4]; 3 μM, 24 h, MSC donor 318006): 69.4 pg/mL
IL-8 level secreted by MSC ([4]; 3 micromolar for 24 hours): downregulation
MCP-1 level secreted by MSC ([4]; 3 micromolar for 24 hours): downregulation
SDF-1alpha level secreted by MSC ([4]; 3 micromolar for 24 hours): upregulation
Fold change of analyte IL-6 upon pretreatment (vs. vehicle control) ([4]; MSC secretome): 0.34 +/− 0.09
Fold change of analyte MCP-1 upon pretreatment (vs. vehicle control) ([4]; MSC secretome): 0.54 +/− 0.09
CD11a mRNA levels in MSCs [5]: significantly increased
Time of peak CD11a mRNA levels post incubation [5]: 14 h
